For this assay, the target named is T1, human cGAS (residues 161-522) (Homo sapiens, UniProt Q8N884).
T1 construct: Recombinantly expressed purified human cGAS (residues 161-522) was used at 25 nM; made in house
T1 sequence (Q8N884 161-522): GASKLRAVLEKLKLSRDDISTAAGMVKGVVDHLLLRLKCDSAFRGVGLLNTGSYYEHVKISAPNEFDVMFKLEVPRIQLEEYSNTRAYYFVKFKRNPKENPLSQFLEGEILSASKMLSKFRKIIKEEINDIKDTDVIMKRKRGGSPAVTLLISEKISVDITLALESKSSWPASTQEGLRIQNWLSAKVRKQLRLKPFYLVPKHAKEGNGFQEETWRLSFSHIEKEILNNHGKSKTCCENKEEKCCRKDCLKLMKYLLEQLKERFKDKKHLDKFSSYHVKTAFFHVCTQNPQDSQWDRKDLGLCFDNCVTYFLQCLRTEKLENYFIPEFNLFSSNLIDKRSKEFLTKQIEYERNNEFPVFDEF
Nature of the assay: Malachite Green assay to measure cGAS activity. The format is biochemical. The conditions noted are these: coupled enzymatic assay, phosphate detection by Malachite Green; 25 nM cGAS, 80 μM ATP, 80 μM GTP, 100 nM ISD, 4 hour at RT. The protocol:
Malachite Green Assay to Measure cGAS Activity
Compounds were tested for cGAS inhibition in a coupled enzymatic assay based on Phosphate detection by Malachite Green. Final assay conditions were 20 mM TRIS pH 7.5 (Applichem), 5 mM MgCl2 (Sigma) and 0.01% BSA (Sigma) supplemented with 80 μM ATP (Sigma), 80 μM GTP (Sigma) and 100 nM Interferon Stimulating DNA (ISD) (Microsynth). Recombinantly expressed purified human cGAS (residues 161-522) was used at 25 nM.
All compounds were prepared as 10 mM stock solutions in DMSO and a 16 pt dilution series in DMSO with a dilution factor of 2.5 was prepared. 1 μL of DMSO dilution series was transferred to 32.3 μL reaction buffer, mixed by pipetting up/down, spun for 1 minute at 3000 rpm and was visually inspected for precipitation. 5 μL of 3-fold enzyme stock solution were transferred to an empty 384-well Black/Clear Flat Bottom Polystyrene NBS (Corning) rows 3-24. Rows 1-2 were filled with assay buffer. Plates were spun 10 seconds at 1000 rpm (164×g). 5 μL of compound intermediate dilution was added and mixed by pipetting up/down to rows 3-24. Rows 1-2 were filled with 3.1% DMSO assay buffer. Plates were spun 10 seconds at 1000 rpm (164×g). 5 μL 3-fold Nucleotide/DNA mix was added to all wells to start the reaction. Plates were spun 10 seconds at 1000 rpm (164×g) and incubated for 4 hour at room temperature (RT) in the dark. 5 μL 4 U/mL PPase (Sigma) were added to all wells. Plates spun 10 seconds at 1000 rpm (164×g). 10 μL BioMol green Solution (Enzo Life Sciences) was added to all wells. Plates spun 10 seconds at 1000 rpm (164×g) and incubated 30 minutes at RT in the dark. Absorbance data was collected 620 nm on an EnVision Multilable Reader (Perkin Elmer) and the following measurement settings were used: excitation filter photometric was 620 nm; excitation from the top; measurement height was 1 mm; number of flashes was 30; number of flashes integrated was 1.
All plates are checked for abnormalities and outliers in the Blank Control (no protein, row 1) and the Neutral Control (no compound, row 2) are excluded using the 3*SD rule. Data was normalized to 0 and 100% by Blank and Neutral Control and each curve was fitted and judged using the 4 parameter logistic equation to determine the IC50 for cGAS inhibition.
Table 1 provides IC50 values (μM) for cGAS inhibition obtained for particular examples of the present invention as measured by the above-described assay.
Regarding `Cc1ccc(-c2cc(C(=O)O)c3c(c2)ncn3CC(F)(F)F)c(Cl)c1` [Example 13, 5-(2-Chloro-4-methylphenyl)-1-(2,2,2-trifluoroethyl)-1H-benzo[d]imidazole-7-carboxylic acid], the IC50 was determined as 3290 nM. In other words, the single-digit micromolar range.

`COCCn1cnc2cc(-c3ccc(C)cc3Cl)cc(C(=O)O)c21` [Example 9, 5-(2-Chloro-4-methylphenyl)-1-(2-methoxyethyl)-1H-benzo[d]imidazole-7-carboxylic acid]: the IC50 came to 3040 nM. On to `CCn1cnc2cc(-c3cc(F)c(C)cc3Cl)cc(C(=O)O)c21` [Example 11, 5-(2-Chloro-5-fluoro-4-methylphenyl)-1-ethyl-1H-benzo[d]imidazole-7-carboxylic acid], for which the concentration for half-maximal inhibition (IC50) is 1930 nM. This IC50 is about 1.6-fold lower than that of the compound before. As for `Cc1ccc(-c2cc(C(=O)O)c3c(c2)ncn3Cc2ccncc2)c(Cl)c1` [Example 5, 5-(2-Chloro-4-methylphenyl)-1-(pyridin-4-ylmethyl)-1H-benzo[d]imidazole-7-carboxylic acid], it took 870 nM to reach half-maximal inhibition (IC50). The compound `CCn1cnc2cc(-c3ccc(C)cc3Cl)cc(C(=O)O)c21` [Example 12, 5-(2-Chloro-4-methylphenyl)-1-ethyl-1H-benzo[d]imidazole-7-carboxylic acid] registered a 50% inhibitory concentration (IC50) of 2810 nM. As for `CC(=O)NCCCn1cnc2cc(-c3ccc(C)cc3Cl)cc(C(=O)O)c21` [Example 2, 1-(3-Acetamidopropyl)-5-(2-chloro-4-methylphenyl)-1H-benzo[d]imidazole-7-carboxylic acid], the figure is 2340 nM. As for `Cc1ccc(-c2cc(C(=O)O)c3c(c2)ncn3Cc2cccnc2)c(Cl)c1` [Example 6, 5-(2-Chloro-4-methylphenyl)-1-(pyridin-3-ylmethyl)-1H-benzo[d]imidazole-7-carboxylic acid], the figure is 2070 nM. `Cc1ccc(-c2cc(C(=O)O)c3c(c2)ncn3Cc2cccc(Cl)c2)c(Cl)c1` [Example 4, 5-(2-Chloro-4-methylphenyl)-1-(3-chlorobenzyl)-1H-benzo[d]imidazole-7-carboxylic acid] showed an IC50 of 2590 nM. This IC50 and that of the compound before are within 1.5-fold of each other. In turn, `Cc1ccc(-c2cc(C(=O)O)c3c(c2)ncn3Cc2ccccn2)c(Cl)c1` [Example 7, 6-(2-Chloro-4-methylphenyl)-3-(pyridin-2-ylmethyl)benzimidazole-4-carboxylic acid] had an IC50 of 1760 nM.

Compound `Cc1ccc(-c2cc(C(=O)O)c3c(c2)ncn3CCc2ccccc2)c(Cl)c1` [Example 14, 5-(2-Chloro-4-methylphenyl)-1-phenethyl-1H-benzo[d]imidazole-7-carboxylic acid] returned a concentration for half-maximal inhibition (IC50) of 1860 nM. The figure for `Cc1ccc(-c2cc(C(=O)O)c3c(c2)ncn3CCN(C)C)c(Cl)c1` [Example 8, 5-(2-Chloro-4-methylphenyl)-1-(2-(dimethylamino)ethyl)-1H-benzo[d]imidazole-7-carboxylic acid] is 2020 nM; for `Cc1ccc(-c2cc(C(=O)O)c3c(c2)ncn3-c2ccccc2)c(Cl)c1` [Example 1, 5-(2-Chloro-4-methylphenyl)-1-phenyl-1H-benzo[d]imidazole-7-carboxylic acid] it is 1120 nM.

The compound `Cc1ccc(-c2cc(C(=O)O)c3c(c2)ncn3CCCNS(C)(=O)=O)c(Cl)c1` [Example 3, 5-(2-Chloro-4-methylphenyl)-1-(3-(methylsulfonamido)propyl)-1H-benzo[d]imidazole-7-carboxylic acid] came in with an IC50 of 1340 nM. `Cc1ccc(-c2cc(C(=O)O)c3c(c2)ncn3Cc2ccccc2)c(Cl)c1` [Example 15, 1-Benzyl-5-(2-chloro-4-methylphenyl)-1H-benzo[d]imidazole-7-carboxylic acid] came in with an IC50 of 2410 nM. Against the preceding compound, the IC50 is about 1.8-fold higher. The figure for `Cc1ccc(-c2cc(C(=O)O)c3c(c2)ncn3C2CC2)c(Cl)c1` [Example 10, 5-(2-Chloro-4-methylphenyl)-1-cyclopropyl-1H-benzo[d]imidazole-7-carboxylic acid] is 4790 nM.
